According to US7393937B2, “N-acetylglucosamine derivatives and use thereof” (Kao Corporation, priority 2002, dated 2008):

Columns and labels:
cultured epidermal cells = settings: 5 mmol/L; independently from cell proliferation; cited from earlier work
[1] = test system: Normal human epidermal cells; experiment: Test Example 2: hyaluronic acid production promotion in normal human epidermal cells; type: cell-based; settings: 48-hour culture, FIG. 3
Text: Normal human epidermal cells (manufactured by Kurabo Industries Ltd.) were inoculated into 24-well plates and cultured in a culture medium for proliferation to the confluent density, and then 2-acetamido-1,3,4,6-tetra-O-acetyl-2-deoxy-β-D-glucopyranoside represented by formula (17) to a final concentration of 100 μmol/L, N-acetylglucosamine derivative obtained in Production Example 9 at a final concentration of 1 mmol/L, and N-acetylglucosamine derivatives obtained in Production Examples 10 to 12 at a final concentration of 100 mmol/L were added. After 48-hour culture from the addition, the amount of hyaluronic acid released into the culture medium was measured. The measurement of the hyaluronic acid was carried out by using a commercially available hyaluronic acid measurement kit (manufactured by Chugai Pharmaceutical Co., Ltd.).

[2] = 100 mmol/L (so in the source), 1/10 concentration of N-acetylglucosamine

| Structure (SMILES) | hyaluronic acid production-promoting effect compared with N-acetylglucosamine [1, 2] | also measured |
| --- | --- | --- |
| CC(=O)N[C@H]1C(O)O[C@H](CO)[C@@H](O)[C@@H]1O (stereo partly drawn) [N-acetylglucosamine] | – | promotion of hyaluronic acid production (cultured epidermal cells): about 1.5 times |
| CCOC1OC(COC(C)=O)C(OC(C)=O)C(OC(C)=O)C1NC(C)=O [Production Example 9, ethyl(2-acetamido-3,4,6-tri-O-acetyl-2-deoxy)β-D-glucopyranoside] | – | hyaluronic acid production-promoting effect compared with N-acetylglucosamine ([1]; 1 mmol/L (same concentration as N-acetylglucosamine)): 6.5 times |
| CCCCCOC1OC(COC(C)=O)C(OC(C)=O)C(OC(C)=O)C1NC(C)=O [Production Example 10, pentyl(2-acetamido-3,4,6-tri-O-acetyl-2-deoxy)β-D-glucopyranoside] | 3.8 times | – |
| CCCCCCCCOC1OC(COC(C)=O)C(OC(C)=O)C(OC(C)=O)C1NC(C)=O [Production Example 11, octyl(2-acetamido-3,4,6-tri-O-acetyl-2-deoxy)β-D-glucopyranoside] | 2.8 times | – |
| CC(=O)NC1C(OC/C=C(\C)CCC=C(C)C)OC(COC(C)=O)C(OC(C)=O)C1OC(C)=O [Production Example 12, geranyl(2-acetamido-3,4,6-tri-O-acetyl-2-deoxy)β-D-glucopyranoside] | 3.7 times | – |
| CC(=O)NC1C(OC(C)=O)OC(COC(C)=O)C(OC(C)=O)C1OC(C)=O [formula (17), 2-acetamido-1,3,4,6-tetra-O-acetyl-2-deoxy-β-D-glucopyranoside] | – | hyaluronic acid production-promoting effect compared with N-acetylglucosamine ([1]; 100 μmol/L (1/10 concentration of N-acetylglucosamine)): 3.0 times |
